The text below walks through data of US20240269238A1, “Therapeutic Regimens and Methods for Reducing Body Weight in a Subject with Fatty Liver Disease using a GLP-1R and GCGR Agonist” (Spitfire Pharma LLC, priority 2022, published 2024).

“Also recorded” adds a separate entry of the source.

One data set deals with Iron-corrected T1 (cT1). Description: Phase 1 12-week NAFLD study (Example 1): iron-corrected T1 (cT1) responder analysis. In kind it is in vivo, human. The settings on record: week 12. From the text:
Provided herein is disclosure of a Phase 1, multicenter, randomized, double-blind, placebo-controlled study to assess the effects of Pemvidutide (also termed herein as ALT-801), the safety of Pemvidutide and effects on hepatic fat fraction, anthropometric parameters, lipid metabolism, inflammatory markers and fibrosis markers in diabetic and non-diabetic (type 2 diabetes) overweight and obese (BMI 28.0 kg/m^2) subjects with NAFLD. This study was designed to assess changes in hepatic fat fraction by MRI-PDFF (magnetic resonance imaging-proton density fat fraction) in diabetic and non-diabetic overweight and obese subjects with NAFLD after 12 weeks of ALT-801 treatment. The trial was conducted without adjunctive diet and exercise interventions. The study assessed changes in body weight, lipid metabolism, metabolic markers, and inflammatory markers and safety and tolerability of ALT-801 after 12 weeks of treatment. Subjects were stratified for the presence or absence of diabetes at baseline. Fibroscan and cT1 assessments evaluated changes in liver inflammatory and fibrotic activity at the end of 12 weeks of treatment.
The study, described in this example, was carried out in 94 subjects overweight and obese (body mass index [BMI] ≥28.0 kg/m^2) Type 2 diabetic and non-diabetic subjects with nonalcoholic fatty liver disease (NAFLD) over about 4.5 months, including up to a 35-day screening period, and 85-day treatment period and a 25-day follow-up period, with treatment with ALT-801 (a composition comprising SEQ ID NO.: 1, “study medication”) or placebo administered by subcutaneous (SC) injection once weekly for up to twelve (12) doses.
After providing informed consent, subjects underwent a screening period of up to 35 days. Subjects were instructed on how to maintain their normal diets, alcohol consumption and physical activities and not to start any new diets, supplements, or exercise programs at any time while participating in the study. […]

Data set [1] is described as follows: Phase 1 study NCT0456124 (Example 2): safety and tolerability. Type of data set: in vivo, human. The settings on record: 12 weeks.
For the next data set, the target named is glucagon receptor (GCGR) (Homo sapiens, UniProt P47871). Description: cellular assay, agonist activity at GCGR. Type of data set: cell-based. From the text:
This disclosure relates to a dual agonist peptide(s) as well as pharmaceutical dosage formulations comprising, and methods for using, the same. The dual agonist peptides have affinity for, and in preferred embodiments about equal affinity for, glucagon-like peptide 1 receptor (GLP-1R) and glucagon receptor (GCGR), as may be determined using a cellular assay. In some embodiments, this disclosure provides pharmaceutical dosage formulations configured to induce weight loss in a human being with fatty liver disease. In some embodiments, the human being may, or may not, suffer from type 2 diabetes. In some embodiments, the disclosure provides pharmaceutical dosage formulations configured to reduce pathogenic plasma lipid mediators. As used herein, “pathogenic” serum lipid mediators, included but are not limited to the following reactive lipid species: malondialdehyde (MDA), isolevuglandins (IsoLG), methyglyoxal (MGO), 4-oxononenal (ONE), and 4-hydroxynonenal (HNE). Oxidized phospholipids include 1-palmitoyl-2-oxovaleroyl-sn-glycero-3-phosphorylcholine (POVPC), 1-O-alkyl-2-azelaoyl-sn-glycero-3-phophorylcholine (azPAF), 1-(Palmitoyl)-2-(5-keto-6-octene-dioyl) phosphatidylcholine (KOdiA-PC), 1-palmitoyl-2-F2-isoprostane-sn-glycero-3-phosphocholine (F2IsoP-PC), and 1-palmitoyl-2-(5,6)-epoxyisoprostane E2-sn-glycero-3-phosphocholine (PEIPC). […]

glucagon receptor (GCGR), sequence (P47871 26-477): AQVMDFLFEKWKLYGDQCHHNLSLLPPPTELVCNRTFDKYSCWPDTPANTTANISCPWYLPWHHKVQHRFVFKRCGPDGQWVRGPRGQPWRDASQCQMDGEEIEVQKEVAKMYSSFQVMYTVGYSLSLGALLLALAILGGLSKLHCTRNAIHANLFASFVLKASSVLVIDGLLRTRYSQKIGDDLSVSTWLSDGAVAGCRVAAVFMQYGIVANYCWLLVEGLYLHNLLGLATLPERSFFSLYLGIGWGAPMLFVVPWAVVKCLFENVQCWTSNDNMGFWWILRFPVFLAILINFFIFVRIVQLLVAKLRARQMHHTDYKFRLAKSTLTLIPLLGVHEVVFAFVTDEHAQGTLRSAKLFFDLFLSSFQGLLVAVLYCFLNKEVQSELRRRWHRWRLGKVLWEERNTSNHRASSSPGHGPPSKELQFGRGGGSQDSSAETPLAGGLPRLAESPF

As a reminder, the EC50 is the concentration giving half of the maximal effect. A lower EC50 goes with a more potent agent. Regarding `CC[C@H](C)[C@H](NC(=O)[C@H](Cc1ccccc1)NC(=O)[C@H](CCC(=O)O)NC(=O)[C@@H]1CCCCNC(=O)CC[C@H](NC(=O)[C@H](CC(=O)O)NC(=O)[C@H](CC(C)C)NC(=O)[C@H](Cc2ccc(O)cc2)NC(=O)[C@H](CCCCN)NC(=O)[C@H](CO)NC(=O)[C@H](Cc2ccc(O)cc2)NC(=O)[C@H](CC(=O)O)NC(=O)[C@H](CO)NC(=O)[C@@H](NC(=O)[C@H](Cc2ccccc2)NC(=O)[C@@H](NC(=O)CNC(=O)[C@H](CCC(N)=O)NC(=O)C(C)(C)NC(=O)[C@@H](N)Cc2c[nH]cn2)[C@@H](C)O)[C@H](C)O)C(=O)N[C@@H](CCCCNC(=O)C2O[C@@H](OCCCCCCCCCCCCCCCCCC(=O)O)C(O)C(O)[C@@H]2O)C(=O)N[C@@H](C)C(=O)N[C@@H](C)C(=O)N1)C(=O)N[C@@H](CCC(N)=O)C(=O)N[C@@H](Cc1c[nH]c2ccccc12)C(=O)N[C@@H](CC(C)C)C(=O)N[C@@H](CC(C)C)C(=O)N[C@@H](CCC(N)=O)C(=O)N[C@H](C(N)=O)[C@@H](C)O` (stereo partly shown) [ALT-801, Pemvidutide], the results for the “proportion of subjects showing >=80 ms for Iron-corrected T1 (cT1)” value in the data set with Iron-corrected T1 (cT1) (1.2 mg), in the data set on Iron-corrected T1 (cT1) (1.8 mg) and with Iron-corrected T1 (cT1) (2.4 mg) were 87.5%, 83.3% and 85.7%, respectively. In data set [1] (1.2, 1.8, 2.4 mg weekly, no dose titration), the tolerability result is “well-tolerated at all dose levels; also recorded: safe and well-tolerated”. Further, the “SAEs or AEs leading to treatment discontinuation” value in data set [1] is “no SAEs or AEs leading to treatment discontinuation were reported”. Moreover, the “severity of AEs” value in data set [1] is listed as “mild or moderate severity”. Besides, the EC50 at glucagon receptor (GCGR) is around 0.04 nM.
